Experimental data: patent publication US7479385B2, “Sugar kinases with expanded substrate specificity and their use” (Wisconsin Alumni Research Foundation, priority 2003, dated 2009)
Read-outs that look alike come from different tables or passages of the source.

Experiments:
[1] = biological target: T1, E. coli GalK mutant M173L (Escherichia coli, UniProt P0A6T3, M173L); assay: Steady-state kinetic profiling (DNS assay), Table 2, M173L; type: biochemical; conditions: sugar 1-8 mM, saturating ATP (14 mM)
T1 construct: His-tag (concluded from Ni-NTA purification and vector pET15b); made in house
T1 sequence (P0A6T3 whole entry M173L): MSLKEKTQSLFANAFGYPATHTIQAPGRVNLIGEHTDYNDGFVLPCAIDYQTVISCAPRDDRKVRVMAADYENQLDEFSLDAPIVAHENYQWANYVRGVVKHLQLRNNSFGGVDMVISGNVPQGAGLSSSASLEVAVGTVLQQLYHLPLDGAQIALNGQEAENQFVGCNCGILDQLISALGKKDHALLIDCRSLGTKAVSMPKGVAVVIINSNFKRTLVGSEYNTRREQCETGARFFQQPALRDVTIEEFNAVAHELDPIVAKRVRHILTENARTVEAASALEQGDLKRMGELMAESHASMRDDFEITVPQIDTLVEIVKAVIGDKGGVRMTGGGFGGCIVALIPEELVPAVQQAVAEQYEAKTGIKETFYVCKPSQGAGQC
Text: (§1) Characterization of GalK Mutants. […] The mutant enzymes were purified by using metal affinity chromatography on Ni-NTA Spin Columns (QIAGEN, Valencia, Calif.) and fractions containing homogenous protein were collected, concentrated and quantified using the Bradford protein assay. The DNS assay was used to assess the substrate specificity of the purified GalK mutants as previously described. […] For each sugar, the DNS assay was used to monitor the reaction progress and control assays in the absence of enzyme or sugar were performed in parallel. Standard curves for each sugar were prepared as described. To assess general percent conversion, each reaction contained 15.0 (M enzyme, 8 mM sugar, 14 mM ATP and 3.5 mM MgCl2. The reactions were incubated at 37° C. for 3 hrs after which the reactions were quenched with MeOH, centrifuged (10 min, 12,000 rpm) and then the supernatant (diluted 20-fold) submitted for LC-MS and MS/MS analysis. For monosaccharide kinetic data determination, the sugar concentration was varied over a range of 1-8 mM, under saturating ATP (14 mM). Reaction progress was assessed via the DNS assay, wherein a change in absorbance at 575 nm as a function of time was obtained and the initial velocity determined by the slope of the linear phase in the progress curve. […]

[2] = biological target: T2, E. coli GalK double mutant M173L-Y371H (Escherichia coli, UniProt P0A6T3, M173L/Y371H); assay: Steady-state kinetic profiling (DNS assay), Table 2, M173L-Y371H; type: biochemical; conditions: sugar 1-8 mM, saturating ATP (14 mM)
T2 construct: His-tag (concluded from Ni-NTA purification and vector pET15b); made in house
T2 sequence (P0A6T3 whole entry M173L/Y371H): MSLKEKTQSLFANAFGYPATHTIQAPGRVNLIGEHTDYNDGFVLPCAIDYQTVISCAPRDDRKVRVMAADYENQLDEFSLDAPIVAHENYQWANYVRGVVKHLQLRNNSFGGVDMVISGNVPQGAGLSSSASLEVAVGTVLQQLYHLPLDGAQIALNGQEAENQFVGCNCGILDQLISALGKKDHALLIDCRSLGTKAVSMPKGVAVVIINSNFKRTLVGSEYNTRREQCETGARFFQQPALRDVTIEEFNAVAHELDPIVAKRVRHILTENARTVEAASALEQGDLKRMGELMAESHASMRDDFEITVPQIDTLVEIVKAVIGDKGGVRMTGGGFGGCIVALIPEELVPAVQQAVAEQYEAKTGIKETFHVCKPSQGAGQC
Text: as §1

[3] = biological target: T3, E. coli GalK M173L mutant (Escherichia coli, UniProt P0A6T3, M173L); assay: Substrate screen / percent conversion of 45 sugars, M173L; type: biochemical; conditions: in 3 hr, 37° C.; 8 mM sugar, 14 mM ATP, 3.5 mM MgCl2, 15.0 μM enzyme
T3 construct: His-tag (concluded from Ni-NTA purification and vector pET15b); made in house
T3 sequence (P0A6T3 whole entry M173L): as the sequence (P0A6T3 whole entry M173L) above
Text: Characterization of GalK Mutants. […] The mutant enzymes were purified by using metal affinity chromatography on Ni-NTA Spin Columns (QIAGEN, Valencia, Calif.) and fractions containing homogenous protein were collected, concentrated and quantified using the Bradford protein assay. The DNS assay was used to assess the substrate specificity of the purified GalK mutants as previously described. […] For each sugar, the DNS assay was used to monitor the reaction progress and control assays in the absence of enzyme or sugar were performed in parallel. Standard curves for each sugar were prepared as described. To assess general percent conversion, each reaction contained 15.0 (M enzyme, 8 mM sugar, 14 mM ATP and 3.5 mM MgCl2. The reactions were incubated at 37° C. for 3 hrs after which the reactions were quenched with MeOH, centrifuged (10 min, 12,000 rpm) and then the supernatant (diluted 20-fold) submitted for LC-MS and MS/MS analysis. For monosaccharide kinetic data determination, the sugar concentration was varied over a range of 1-8 mM, under saturating ATP (14 mM). Reaction progress was assessed via the DNS assay, wherein a change in absorbance at 575 nm as a function of time was obtained and the initial velocity determined by the slope of the linear phase in the progress curve. The kinetic data was analyzed using Enzyme Kinetics Module software (SSPS, Inc., Chicago, Ill.) as previously described.
Characterization of Engineered E. coli GalK Mutants.

L. lactis wild-type GalK = biological target: T4, L. lactis wild-type GalK (Lactococcus lactis subsp. lactis, UniProt Q9R7D7); conditions: in vitro, cited from earlier work
T4 sequence (Q9R7D7 1-399): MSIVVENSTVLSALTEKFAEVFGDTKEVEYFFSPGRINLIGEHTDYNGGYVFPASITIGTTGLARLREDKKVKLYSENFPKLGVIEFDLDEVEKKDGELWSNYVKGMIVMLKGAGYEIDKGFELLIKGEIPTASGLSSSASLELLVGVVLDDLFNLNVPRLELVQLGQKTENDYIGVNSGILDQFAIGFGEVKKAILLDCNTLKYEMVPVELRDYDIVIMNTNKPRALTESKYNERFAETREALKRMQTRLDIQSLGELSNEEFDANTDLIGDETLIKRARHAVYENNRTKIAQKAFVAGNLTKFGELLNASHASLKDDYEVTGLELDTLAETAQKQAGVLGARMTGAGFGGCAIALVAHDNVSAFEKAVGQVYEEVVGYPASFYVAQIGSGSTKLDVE

L. lactis GalK Y385H = L. lactis GalK Y385H (Lactococcus lactis subsp. lactis, UniProt Q9R7D7, Y385H); conditions: cited from earlier work
Sequence of L. lactis GalK Y385H (Q9R7D7 whole entry Y385H): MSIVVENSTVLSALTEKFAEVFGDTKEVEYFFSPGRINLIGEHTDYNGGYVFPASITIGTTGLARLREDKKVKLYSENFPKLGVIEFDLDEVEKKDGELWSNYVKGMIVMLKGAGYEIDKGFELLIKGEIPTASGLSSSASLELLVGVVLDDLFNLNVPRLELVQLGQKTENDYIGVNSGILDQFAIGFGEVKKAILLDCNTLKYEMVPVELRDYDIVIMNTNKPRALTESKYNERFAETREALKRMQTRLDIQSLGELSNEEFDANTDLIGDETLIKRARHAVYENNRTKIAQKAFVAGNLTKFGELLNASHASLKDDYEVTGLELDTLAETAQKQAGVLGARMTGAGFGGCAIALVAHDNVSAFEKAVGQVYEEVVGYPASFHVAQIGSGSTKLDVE

SMILES: O=C[C@H](O)[C@@H](O)[C@H](O)[C@H](O)CO [D-Glc (27), D-glucose]
- Km ([1]; read-out: Km, M173L (D-Glc column)): 2.6 mM
- Vmax, M173L [1]: 0.02 (±0.01) mM min^−1
- Km ([2]; read-out: Km, M173L-Y371H (D-Glc column)): 4 mM
- Vmax, M173L-Y371H [2]: 0.02 (±0.01) mM min^−1
- conversion by M173L [3]: 20%
- conversion / activity with L. lactis wild-type GalK (in words) (L. lactis wild-type GalK): weak activity
- conversion / activity with L. lactis wild-type GalK (in words) (L. lactis wild-type GalK; listed as D-glucose (27)): in vitro conversion
- activity with L. lactis GalK Y385H (in words) (L. lactis GalK Y385H): weak activity
